PubChem BioAssay (NCI)
“And” between values parts separate entries of the source, which are not always exact repeats. Identical values can stand only once.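 Compound exposure: 48 hours, 5 concentrations, 96-well plates. Here, GI50 denotes the concentration required for 50% inhibition of growth. TGI marks complete inhibition of growth.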

How the values were obtained:
Experiment in all cases: inhibition of tumour cell growth, NCI panel, 48 h
A498 renal = system: A498 renal
DU-145 prostate = system: DU-145 prostate
HCT-15 colon = system: HCT-15 colon
LOX IMVI melanoma = system: LOX IMVI melanoma
MALME-3M melanoma = system: MALME-3M melanoma
MCF7 breast = system: MCF7 breast
PC-3 prostate = system: PC-3 prostate
RXF 393 renal = system: RXF 393 renal
SK-OV-3 ovarian = system: SK-OV-3 ovarian
TK-10 renal = system: TK-10 renal

Structure (SMILES)	TGI (A498 renal)	TGI (DU-145 prostate)	TGI (HCT-15 colon)	TGI (LOX IMVI melanoma)	TGI (MALME-3M melanoma)	TGI (MCF7 breast)	TGI (PC-3 prostate)	TGI (RXF 393 renal)	TGI (SK-OV-3 ovarian)	TGI (TK-10 renal)	GI50 (A498 renal)	GI50 (DU-145 prostate)	GI50 (PC-3 prostate)	GI50 (SK-OV-3 ovarian)	GI50 (HCT-15 colon)	GI50 (LOX IMVI melanoma)	GI50 (MALME-3M melanoma)	GI50 (MCF7 breast)	GI50 (RXF 393 renal)	GI50 (TK-10 renal)
O=P(O)(O)OP(=O)(O)O	> 100 µM	> 100 µM	> 100 µM	> 100 µM	> 100 µM	> 100 µM	> 100 µM	> 100 µM	> 100 µM	> 100 µM										
NC(CCc1ccccc1)(C(=O)O)c1ccccc1 (configuration not stated)	> 100 µM	> 100 µM	> 100 µM	> 100 µM	> 100 µM		> 100 µM	> 100 µM		> 100 µM										
COC(=O)c1c(O)ccc2c1c1c(n2Cc2ccccn2)C(=O)c2ccccc2C1	> 100 µM	> 100 µM	> 100 µM	> 100 µM	> 100 µM	> 100 µM	90.2 µM	> 100 µM	> 100 µM	> 100 µM										
CC(Br)C(=O)c1ccc2cc(Br)c3ccccc3c2c1 (configuration not stated)	33.1 µM	31.3 µM	31 µM	20.4 µM	28.8 µM	30.1 µM		30.2 µM	30.8 µM	33.1 µM										
CCOc1cc(NC(C)=O)ccc1C(=O)N/N=C/c1ccco1	> 100 µM	> 100 µM	> 100 µM	> 100 µM	> 100 µM	> 100 µM	> 100 µM	> 100 µM	> 100 µM	> 100 µM										
CCCCCCOC(=O)C(N)Cc1ccc(OC)cc1 (configuration not stated)		> 100 µM	> 100 µM	> 100 µM	> 100 µM	> 100 µM	> 100 µM	> 100 µM	> 100 µM	> 100 µM										
Cc1cc(N2CCOCC2)nc(N(CCCNc2ccnc3cc(Cl)ccc23)Cc2ccc3c(c2)OCO3)n1	3.42 µM	2.93 µM					3.24 µM		4.54 µM		1.51 µM	1.43 µM	1.62 µM	2.29 µM						
CN(C)C/C=C(/c1ccc(Br)cc1)c1cccnc1	57.8 µM	> 100 µM	> 100 µM		44.1 µM	> 100 µM	> 100 µM	> 100 µM	> 100 µM	> 100 µM										
CCN(CC)/[N+]([O-])=N/OC	> 100 µM		> 100 µM	> 100 µM				> 100 µM	> 100 µM	> 100 µM										
Cc1cc(O)c2c(c1O)C(=O)c1c(O)ccc(O)c1C2=O	> 100 µM	> 100 µM	> 100 µM	> 100 µM	> 100 µM	> 100 µM	> 100 µM	> 100 µM	> 100 µM	> 100 µM										
CC(C)(C)c1ccc(O)c(Br)c1	> 100 µM	> 100 µM	> 100 µM	> 100 µM	> 100 µM	> 100 µM	> 100 µM	> 100 µM	> 100 µM	> 100 µM										
CC(C)c1ccc2c(c1)[C@@]1(C)CC[C@H](C)C(C)(C)C1CC2 (some centres not stated)	34.9 µM	59.4 µM	34 µM	32 µM	37 µM	32.1 µM		33.2 µM	33.9 µM	33.1 µM										
O=C(CSc1nc2ccc(Cl)cc2c(=O)n1-c1ccccc1)N=Nc1c(O)[nH]c2ccc(F)cc12	9.8 µM	4.85 µM	3.45 µM	3.22 µM	11.6 µM	4.64 µM	6.82 µM	4.26 µM	22.3 µM	15.5 µM										
Clc1ccc(NCc2nnc(COc3ccc(OCc4nnc(CNc5ccc(Cl)cc5)o4)c(Cl)c3)o2)cc1	> 100 µM	> 100 µM	> 100 µM	> 100 µM	> 100 µM	88.3 µM	> 100 µM	> 100 µM		> 100 µM										
C/C(=C\CNc1ncnc2nc(Cl)[nH]c12)CO	> 100 µM	> 100 µM		> 100 µM	> 100 µM	> 100 µM	> 100 µM	> 100 µM	> 100 µM	> 100 µM										
CCOC(=O)C(C)OC(=O)c1ccc(C)cc1 (configuration not stated)	> 100 µM		> 100 µM	> 100 µM	> 100 µM			> 100 µM	> 100 µM	> 100 µM										
NCCCCN	> 100 µM	> 100 µM	> 100 µM	> 100 µM	> 100 µM	> 100 µM	> 100 µM	> 100 µM	> 100 µM	> 100 µM										
COc1cccc(/C=N/[N-]C(N)=O)c1[O-].[Cu+2].[OH3+].c1cnc2c(c1)ccc1cccnc12	21.8 µM		> 100 µM	48.2 µM	33.3 µM				25.2 µM	30.4 µM										
COC(=N)C(C)C			> 100 µM	> 100 µM	> 100 µM			> 100 µM	> 100 µM	> 100 µM										
C[C@H](Nc1ccc(C#N)n(C)c1=O)c1cc2cc(Cl)ccc2[nH]c1=O	92.2 µM	> 100 µM	> 100 µM	> 100 µM	> 100 µM	> 100 µM	83.5 µM	67.7 µM	75.1 µM	> 100 µM	20.4 µM	33 µM	13.3 µM	23.9 µM	28.6 µM	33.1 µM	25.3 µM	23.2 µM	13.3 µM	37.8 µM
CCOC(=O)C(=CNC(Cc1c[nH]c2ccccc12)C(=O)OC)C(=O)OCC (configuration not stated)	> 100 µM		> 100 µM	> 100 µM	> 100 µM				> 100 µM	> 100 µM										
O=CC(O)C(O)C(O)COc1cc(CO)cc2c1C(=O)c1ccccc1C2=O (configuration not stated)	> 100 µM		> 100 µM	> 100 µM	> 100 µM			> 100 µM	> 100 µM	> 100 µM										
C=C1CCCC(C)(C)[C@@H]1CC/C(C)=C/Cn1c2cccc(=O)c-2nc2ccccc21	70.2 µM and 14.1 µM			2.45 µM	> 100 µM	> 100 µM and 10.4 µM			10.7 µM		7.76 µM				4.34 µM		5.76 µM	4.92 µM		
CC(C)(C)OC(=O)N1C(C2=COc3ccccc3O2)=COc2cccnc21	3.32 µM	2.76 µM	3.46 µM	3.36 µM	2.76 µM	3.08 µM	6.04 µM	3.06 µM	3.99 µM	7.72 µM										
